This is an account of results in article PMC12501029, “Discovery of a CNS active GSK3 degrader using orthogonally reactive linker screening” (Nature Communications, 2025).

For this assay, the system named is GSK3, total β-catenin, phospho-CRMP2. The assay can be described thus: GSK3 and GSK3 substrates immunoblot in differentiated SH-SY5Y cells, 24 h. It counts as cell-based, human. How it is done: HEK293 cells purchased from ATCC and MEF cells were kindly gifted by MRC PPU reagents and services at the University of Dundee. HEK293 and MEF cells were maintained in DMEM (high glucose, GlutaMAX; Gibco) containing 10% foetal bovine serum (FBS; Thermo Fisher), 100U ML-1 penicillin-streptomycin (Thermo Fisher). HAP1 wild type and HAP1 Cereblon Knock-out cell line (CRBN-KO, HZGHC003752c001, Horizon) was a gift from the Ciulli Lab. HAP1 cells were cultured in IMDM (Gibco) with the same additives described as above. SH-SY5Y human neuroblastoma cells (ATCC, CRL-2266) maintained in DMEM (high glucose, Gibco) supplemented with same additives as above. For differentiation, 5 × 10^5 cells were seeded into each well of 6 well plates and differentiated into a more neuronal-like phenotype by treating for 5 days with 10 µM retinoic acid (F9665, Sigma), changing the media every day for the first 3 days[39],[40]. […]
HEK293, HAP1, HAP1 CRBN KO and SH-SY5Y cells were plated in either 6 cm plates or 6-well plates at varying densities (0.5–0.7 × 10^6 cells per plate or wells), and MEF cells were plated in 10 cm plates (1–1.2 × 10^6 cells per plate) depending on experimental set up in respective culturing condition as described above. […] Following clearance of lysates, protein concentrations were determined by the BCA assay (Fisher Scientific, 23225) or Bradford assay (Bio-rad). […]
(In general: In western blotting, separated proteins are transferred to a membrane and probed.)

On to `Cn1nc(N2CCC(=O)NC2=O)c2ccc(CN3CCN(Cc4ccc(-c5cn(-c6ccc(-c7cn8nccc(C(=O)Nc9cnccc9N9CCOCC9)c8n7)cc6)nn5)nc4)CC3)cc21` [compound 24], for which the phospho-CRMP2 level entry (concurrent with GSK3 degradation) is “concurrent reduction in phospho-CRMP2”. The “dose at which β-catenin stabilisation most clear” value (highest tested dose) stood at 100 nM.
